Measurements as given in patent publication US9586931B2 (Merck Sharp & Dohme Corp., priority 2012, dated 2017).
Where a name gives a salt, the structure may show the parent alone.

Target: T1, recombinant human GST-Syk (Homo sapiens, UniProt P43405)
T1 construct: purchased Carna Biosciences 08-176
Assay: Homogeneous Time-Resolved Fluorescence (HTRF) assay for the recombinant human Syk enzyme
Format: biochemical
Settings: recombinant human GST-Syk 5 pM, ATP 25 μM, 10-dose titration 10 μM to 0.508 nM; read-out: rhSYK Activity IC50
In short: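 GST-hSyk fusion protein phosphorylated a peptide for 45 min at room temperature. The reaction was quenched with 2 nM Eu-anti-phosphotyrosine antibody and 70 nM SA-APC in 15 mM Tris pH 7.5, 40 mM EDTA, 0.01% Tween 20. The HTRF signal was read after 30 min.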

| SMILES | IC50 |
| --- | --- |
| COC(=O)CNC(=O)[C@H](C)n1cc(-c2cc(C)cc(Nc3cc(C(F)(F)F)ccn3)n2)nn1 [Example 1.1, Methyl N-{(2S)-2-[4-(4-methyl-6-{[4-(trifluoromethyl)pyridin-2-yl]amino}pyridin-2-yl)-1H-1,2,3-triazol-1-yl]propanoyl}glycinate trifluoroacetate] | 0.0763 µM |
| Cc1cc(Nc2cc(C(F)(F)F)ccn2)nc(-c2cn(C3CN(C(=O)C(C)O)CC3O)nn2)c1 (single isomer, unassigned) [Example 13.3, 1-[2-hydroxypropanoyl]-4-[4-(4-methyl-6-{[4-(trifluoromethyl)pyridin-2-yl]amino}pyridin-2-yl)-1H-1,2,3-triazol-1-yl]pyrrolidin-3-ol] | 0.0105 µM |
| Cc1cc(Nc2cc(C(F)(F)F)ccn2)nc(-c2cn(CC(=O)O)nn2)c1 [Example 5.88, [4-(4-methyl-6-{[4-(trifluoromethyl)pyridin-2-yl]amino}pyridin-2-yl)-1H-1,2,3-triazol-1-yl]acetic acid] | 0.0529 µM |
| Cc1cc(Nc2nccc(C(F)(F)F)n2)cc(-n2cc(CCC(=O)O)nn2)c1 [Example 15.14, 3-[1-(3-methyl-5-{[4-(trifluoromethyl)pyrimidin-2-yl]amino}phenyl)-1H-1,2,3-triazol-4-yl]propanoic acid] | 0.0796 µM |
| Cc1cc(Nc2nccc(C(F)(F)F)n2)cc(-c2cn(CC3(O)CCC(C(=O)O)C(C)(C)C3)nn2)c1 (stereo not shown) [Example 3.4, 4-hydroxy-2,2-dimethyl-4-{[4-(3-methyl-5-{[4-(trifluoromethyl)pyrimidin-2-yl]amino}phenyl)-1H-1,2,3-triazol-1-yl]methyl}cyclohexanecarboxylic acid] | 0.0814 µM |
| COc1nc(Nc2cc(C)cc(-c3cn(CC(C)(O)C(C)(C)O)nn3)c2)ncc1Cl (stereo not shown) [Example 21.16, 1-(4-{3-[(5-chloro-4-methoxypyrimidin-2-yl)amino]-5-methylphenyl}-1H-1,2,3-triazol-1-yl)-2,3-dimethylbutane-2,3-diol] | 0.0506 µM |
| Cc1cc(Nc2cc(C(F)(F)F)ccn2)nc(-c2cn(C(C)C(=O)N3CCc4onc(-c5ccc(F)cc5)c4C3)nn2)c1 (stereo not shown) [Example 1.39, 6-(1-{2-[3-(4-fluorophenyl)-6,7-dihydroisoxazolo[4,5-c]pyridin-5(4H)-yl]-1-methyl-2-oxoethyl}-1H-1,2,3-triazol-4-yl)-4-methyl-N-[4-(trifluoromethyl)pyridin-2-yl]pyridin-2-amine] | 0.367 µM |
| Cc1cc(Nc2ncc(F)c(C(F)F)n2)cc(-c2cn(C3CCCCC3O)nn2)c1 (single isomer, unassigned) [Example 7.30, 2-[4-(3-{[4-(difluoromethyl)-5-fluoropyrimidin-2-yl]amino}-5-methylphenyl)-1H-1,2,3-triazol-1-yl]cyclohexanol] | 0.0099 µM |
| Cc1cc(Nc2ncc(F)c(C(F)F)n2)cc(-c2cn(C3CCCCC3O)nn2)c1 (single isomer, unassigned) [Example 7.29, 2-[4-(3-{[4-(difluoromethyl)-5-fluoropyrimidin-2-yl]amino}-5-methylphenyl)-1H-1,2,3-triazol-1-yl]cyclohexanol] | 0.0143 µM |
| Cc1cc(Nc2cc(C(F)(F)F)ccn2)nc(-c2cn(CC3(O)CCOC3)nn2)c1 (single isomer, unassigned) [Example 5.12, 3-{[4-(4-methyl-6-{[4-(trifluoromethyl)pyridin-2-yl]amino}pyridin-2-yl)-1H-1,2,3-triazol-1-yl]methyl}tetrahydrofuran-3-ol] | 0.0112 µM |
| Cc1cc(Nc2nccc(C(F)F)n2)cc(-c2cn(CC3OC(=O)NC34CC4)nn2)c1 (single isomer, unassigned) [Example 7.17, 7-((4-(3-((4-(difluoromethyl)pyrimidin-2-yl)amino)-5-methylphenyl)-1H-1,2,3-triazol-1-yl)methyl)-6-oxa-4-azaspiro[2.4]heptan-5-one] | 0.0011 µM |
| Cc1cc(Nc2cc(C(F)(F)F)ccn2)nc(-c2cn(C(C)C(O)CC#N)nn2)c1 (stereo not shown) [Example 4.3, 3-hydroxy-4-[4-(4-methyl-6-{[4-(trifluoromethyl)pyridin-2-yl]amino}pyridin-2-yl)-1H-1,2,3-triazol-1-yl]pentanenitrile] | 0.0046 µM |
| Cc1cc(Nc2nccc(C)n2)cc(-c2cn(C[C@](C)(O)CO)nn2)c1 (single isomer, unassigned) [Example 21.2, 2-methyl-3-(4-(3-methyl-5-((4-methylpyrimidin-2-yl)amino)phenyl)-1H-1,2,3-triazol-1-yl)propane-1,2-diol] | 0.002 µM |
| Cc1cc(Nc2nccc(C(F)(F)F)n2)cc(-n2cc(C3(O)CCC(C(=O)O)C(C)(C)C3)nn2)c1 (stereo not shown) [Example 15.2] | 0.0145 µM |
| Cc1cc(Nc2nccc(C(F)F)n2)cc(-c2cn(C(C)C(C)(O)CO)nn2)c1 (single isomer, unassigned) [Example 30.4, 3-(4-(3-((4-(Difluoromethyl)pyrimidin-2-yl)amino)-5-methylphenyl)-1H-1,2,3-triazol-1-yl)-2-methylbutane-1,2-diol] | 0.0114 µM |
| Cc1cc(Nc2cc(C)c(Cl)cn2)nc(-c2cn(CC(C)(O)C(C)(C)O)nn2)c1 (stereo not shown) [Example 21.24, 1-(4-{6-[(5-chloro-4-methylpyridin-2-yl)amino]-4-methylpyridin-2-yl}-1H-1,2,3-triazol-1-yl)-2,3-dimethylbutane-2,3-diol] | 0.0319 µM |

| SMILES | IC50 |
| --- | --- |
| Cc1cc(Nc2cc(C(F)(F)F)ccn2)nc(-c2cn(C3CCC(C(N)=O)C(C)(C)C3)nn2)c1 (single isomer, unassigned) [Example 1.4, 2,2-dimethyl-4-[4-(4-methyl-6-{[4-(trifluoromethyl)pyridin-2-yl]amino}pyridin-2-yl)-1H-1,2,3-triazol-1-yl]cyclohexanecarboxamide] | 0.0038 µM |
| Cc1cc(Nc2cc(C(F)(F)F)ccn2)nc(-c2cn(CC(C)(O)CO)nn2)c1 (stereo not shown) [Example 10.14, 2-methyl-3-[4-(4-methyl-6-{[4-(trifluoromethyl)pyridin-2-yl]amino}pyridin-2-yl)-1H-1,2,3-triazol-1-yl]propane-1,2-diol] | 0.0091 µM |
| Cc1cc(Nc2nccc(C(F)(F)F)n2)cc(-c2cn(C3CCC(C(=O)O)CC3)nn2)c1 (stereo not shown) [Example 3.16, 4-[4-(3-methyl-5-{[4-(trifluoromethyl)pyrimidin-2-yl]amino}phenyl)-1H-1,2,3-triazol-1-yl]cyclohexanecarboxylic acid] | 0.0333 µM |
| Cc1cc(Nc2cc(C(F)(F)F)ccn2)nc(-c2cn(C/C=C/COc3ccccc3Cl)nn2)c1 [Example 5.32, 6-{1-[(2E)-4-(2-chlorophenoxy)but-2-en-1-yl]-1H-1,2,3-triazol-4-yl}-4-methyl-N-[4-(trifluoromethyl)pyridin-2-yl]pyridin-2-amine] | 0.752 µM |
| Cc1cc(Nc2cc(C(F)(F)F)ccn2)nc(-c2cn(C(C)C(=O)NCCc3c[nH]c4ccccc34)nn2)c1 (stereo not shown) [Example 1.29] | 0.124 µM |
| Cc1cc(Nc2cc(C(F)(F)F)ccn2)nc(-c2cn(C(C)C(N)=O)nn2)c1 (stereo not shown) [Example 1.25, 2-[4-(4-methyl-6-{[4-(trifluoromethyl)pyridin-2-yl]amino}pyridin-2-yl)-1H-1,2,3-triazol-1-yl]propanamide] | 0.0088 µM |
| Cc1cc(Nc2nccc(C(F)(F)F)n2)cc(-c2cn(Cc3ccc(C(=O)O)cc3)nn2)c1 [Example 5.21, 4-{[4-(3-methyl-5-{[4-(trifluoromethyl)pyrimidin-2-yl]amino}phenyl)-1H-1,2,3-triazol-1-yl]methyl}benzoic acid] | 0.0033 µM |
| Cc1cc(Nc2cc(C(F)(F)F)ccn2)nc(-c2nncn2C)c1 [Example 16.3, 4-methyl-6-(4-methyl-4H-1,2,4-triazol-3-yl)-N-[4-(trifluoromethyl)pyridin-2-yl]pyridin-2-amine] | 0.389 µM |
| Cc1cc(Nc2cc(C(F)(F)F)ccn2)nc(-c2cn(C/C=C/C(N)=O)nn2)c1 [Example 1.26, (2E)-4-[4-(4-methyl-6-{[4-(trifluoromethyl)pyridin-2-yl]amino}pyridin-2-yl)-1H-1,2,3-triazol-1-yl]but-2-enamide] | 1.11 µM |
| Cc1cc(Nc2nccc(C(F)(F)F)n2)cc(-c2cn(CCCO)nn2)c1 [Example 5.77, 3-[4-(3-methyl-5-{[4-(trifluoromethyl)pyrimidin-2-yl]amino}phenyl)-1H-1,2,3-triazol-1-yl]propan-1-ol] | 0.0507 µM |
| Cc1cc(Nc2cc(C(F)(F)F)ccn2)nc(-c2cn(C[C@@H](C)CO)nn2)c1 [Example 5.81, (2R)-2-methyl-3-[4-(4-methyl-6-{[4-(trifluoromethyl)pyridin-2-yl]amino}pyridin-2-yl)-1H-1,2,3-triazol-1-yl]propan-1-ol] | 0.0069 µM |
| Cc1cc(Nc2nccc(C(F)(F)F)n2)cc(-c2cn(C3CCCCC3O)nn2)c1 (racemic) [Example 5.57, 2-[4-(3-methyl-5-{[4-(trifluoromethyl)pyrimidin-2-yl]amino}phenyl)-1H-1,2,3-triazol-1-yl]cyclohexanol] | 0.017 µM |
| Cc1cc(Nc2cc(C(F)(F)F)ccn2)nc(-c2cn(C(CO)c3ccc(C(N)=O)cc3)nn2)c1 (stereo not shown) [Example 1.9, 4-{2-hydroxy-1-[4-(4-methyl-6-{[4-(trifluoromethyl)pyridin-2-yl]amino}pyridin-2-yl)-1H-1,2,3-triazol-1-yl]ethyl}benzamide] | 0.0029 µM |
| Cc1cc(Nc2cc(C(F)F)ccn2)nc(-c2cn(CC3(C)CNC(=O)O3)nn2)c1 (single isomer, unassigned) [Example 7.8, 5-((4-(6-((4-(difluoromethyl)pyridin-2-yl)amino)-4-methylpyridin-2-yl) 1H-1,2,3-triazol-1-yl)methyl)-5-methyloxazolidin-2-one] | 0.0019 µM |
| Cc1cc(Nc2nccc(C(F)F)n2)cc(-c2cn(CC3CNC(=O)O3)nn2)c1 (single isomer, unassigned) [Example 7.4, 5-((4-(3-((4-(difluoromethyl)pyrimidin-2-yl)amino)-5-methylphenyl)-1H-1,2,3-triazol-1-yl)methyl)oxazolidin-2-one] | 0.0018 µM |
